Activity calls are given as the source filed them. No cut-off for these calls is given here.
Legend:
HL-60 [1] = test: Cytotoxicity against human HL60 cells assessed as reduction in cell viability measured after 48 hrs by CCK8 assay; assay type: functional, cell-based; conditions: HL-60, 48 h
HL-60 [2] = test: Cytotoxicity against human HL60 cells assessed as cell viability at 10 uM measured after 48 hrs by CCK8 assay relative to control; assay type: functional; conditions: HL-60, 48 h, read-out: Activity
HL-60 [3] = test: Induction of apoptosis in human HL60 cells assessed as chromatin condensation at 1 uM measured after 24 hrs by Hoechst 33342 staining based fluorescence microscopic method; assay type: functional, cell-based
HL-60 [4] = test: Induction of apoptosis in human HL60 cells assessed as chromatin fragmentation at 1 uM measured after 24 hrs by Hoechst 33342 staining based fluorescence microscopic method; assay type: functional, cell-based
HL-60 [5] = test: Induction of reactive oxygen species generation in human HL60 cells assessed as increase in intracellular ROS level at 1 uM measured after 2 hrs by NBT dye-based assay relative to control; assay type: functional
HL-60 [6] = test: Induction of apoptosis in human HL60 cells assessed as chromatin crenation at 1 uM measured after 24 hrs by Hoechst 33342 staining based fluorescence microscopic method; assay type: functional, cell-based
HL-60 [7] = test: Induction of reactive oxygen species generation in human HL60 cells assessed as increase in extracellular ROS level at 1 uM measured after 2 hrs by NBT dye-based assay; assay type: functional, cell-based

| Structure (SMILES) | IC50 (HL-60 [1]; read-out: IC50) [nM] | viability at 10 µM (HL-60 [2]) [%] | also measured |
| --- | --- | --- | --- |
| CC1=CC(=O)c2[nH]c3ccc(C(F)(F)F)cc3c2C1=O | 590 | < 20 |  |
| O=C1c2ccccc2C(=O)c2c1oc1ccccc21 | 410 |  | Activity (HL-60 [3]): Active; Activity (HL-60 [4]): Active; fold change (FC) (HL-60 [5]): 2.3 - 2.4; Activity (HL-60 [6]): Active; Activity (HL-60 [7]): Active |
| O=C1c2ccccc2C(=O)c2c1sc1ccccc21 | > 50000 |  |  |
| CC1=CC(=O)c2[nH]c3ccc(Cl)cc3c2C1=O | 240 | < 20 |  |
| COc1ccc2c3c([nH]c2c1)C(=O)C=C(C)C3=O | 1210 | < 20 |  |
| COc1ccc2[nH]c3c(c2c1)C(=O)C=C(C)C3=O | 5060 | < 20 |  |
| O=c1[nH]cc(F)c(=O)[nH]1 [FLUOROURACIL] |  |  | IC50 (HL-60 [1]): 42800 nM |
| COc1cc2[nH]c3c(c2cc1OC)C(=O)C(C)=CC3=O | 550 | < 20 |  |
| O=C1c2ccccc2C(=O)c2c1[nH]c1ccccc21 [BENZOCARBAZOLEDIONE] | > 50000 |  | Activity (HL-60 [5]): Active |
| COc1ccc2[nH]c3c(c2c1)C(=O)C(C)=CC3=O | 3110 | < 20 |  |
| CC1=CC(=O)c2[nH]c3ccccc3c2C1=O [MURRAYAQUINONE A] | 730 | < 20 | Activity (HL-60 [3]): Active; Activity (HL-60 [4]): Active; fold change (FC) (HL-60 [5]): 2.3 - 2.4; Activity (HL-60 [6]): Active; Activity (HL-60 [7]): Active |
| O=C1c2ccccc2C(=O)c2c1[se]c1ccccc21 | > 50000 |  |  |
| CC1=CC(=O)c2c([nH]c3ccccc23)C1=O | 290 | < 20 |  |
